The values that follow come from patent US6369109B1, “Betulinic acid and derivatives thereof useful for the treatment of neuroectodermal tumor” (Deutsches Krebsforschungszentrum Stiftung des Offentlichen …, priority 1998, dated 2002).

Test [1] deals with mitochondria isolated from SHEP cells. Put plainly: Cytochrome c release from isolated mitochondria (Western blot). The test is classed as biochemical, human. The settings on record: bongkrekic acid; FIG. 10C. Here is the method:
Cells were lysed for 30 min at 4° C. in PBS with 0.5% Triton X (Serva, Heidelberg, Germany) and 1 mM PMSF (Sigma, Deisenhofen, Germany) followed by high-speed centrifugation. Membrane proteins were eluted in buffer containing 0.1 M glycine, pH 3.0 and 1.5 M Tris, pH 8.8. Protein concentration was assayed using bicinchoninic acid (Pierce, Rockford, Ill.). 40 μg protein per lane was separated by 12% or 15% SDS-PAGE and electro blotted onto nitrocellulose (Amersharn, Braunschweig, Germany). Equal protein loading was controlled by Ponceau red staining of membranes. After blocking for 1 h in PBS supplemented with 2% BSA (Sigma) and 0.1% Tween 20 (Sigma), immunodetection of caspases-3 and -8, PARP, and cytochrome c protein was done using mouse anti-caspase-8 mAb C15 (Scaffidi et al., 1997, J. Biol. Chem. 272, 26953-26958, 1:5 dilution of hybridoma supernatant), mouse anti-caspase-3-specific mAb (1:1000, Transduction Laboratories, Lexington, Ky.), rabbit anti-PARP polyclonal antibody (1:10000, Enzyme Systems Products) or mouse anti-cytochrome c mAb (1:5000, PharMingen, San Diego, Calif.). Goat anti-mouse IgG or goat anti-rabbit IgG (1:5000, Santa Cruz Biotechnology) followed by ECL (Amersham) was used for detection.
Mitochondria isolated from SHEP cells transfected with bcl-2, Bcl-XL or a neontycin resistance vector only (Neo) were treated with 10 μg/ml betulinic acid. […]
Background: A western blot detects proteins with antibodies after separation by electrophoresis.

Test [2] deals with CD95-L mRNA in SH-EP neuroblastoma cells. In words: CD95-L mRNA expression by RT-PCR. Format: cell-based, human. The settings on record: 5 and 10 μg/ml betulinic acid; 0.5 μg/ml doxorubicin 24 h; FIG. 3A. Here is the method: Total RNA was prepared using the Qiagen total RNA kit (Qiagen, Hilden, Germany). RNA was converted to cDNA by reverse transcription and amplified for 38 cycles by PCR in a thermocycler (Stratagene, Heidelberg, Germany) using the Gene Amplification RNA-PCR kit (Perkin-Elmer, Branchburg, N.J.) following the manufacturer's instructions. Primers used for amplification of the CD95-L fragment are according to the sequence of human CD95-L (Suda et al., 1995, Cell 75:1169-1178; Herr et al., 1996, Cell Death Diff., 5:299-305). Expression of β-actin (MWG-Biotech, Ebersberg, Germany) was used as an internal standard for RNA integrity and equal gel loading. PCR products were run at 60 V for 2 h on a 1.5% agarose gel stained with ethidium bromide and visualized by UV illumination.
SH-EP neuroblastoma cells were incubated with 5 and 10 μg/ml betulinic acid for the indicated times or with 0.5 μg/ml doxorubicin for 24 h. CD95-L mRNA expression was determined by RT-PCR. Expression of μ-actin was used to control RNA integrity and equal gel loading.

Test [3] concerns CD95-L and CD95 in SHEP cells transfected with Bcl-2, Bcl-XL or Neo. Put plainly: Induction of CD95-L and CD95 (RT-PCR, Western blot, FACS). The test is classed as cell-based, human. The settings on record: 0.5 μg/ml Doxo or 10 μg/ml betulinic acid, 24 h, Bcl-2 or Bcl-XL cells, FIG. 13. Here is the method:
Cells were stained with anti-APO-1 (CD95) IgGl monoclonal antibody (moab) (1 μg/ml; Trauth et al., 1989, Science 245:301-305) for 45 minutes at 4° C. followed by goat anti-mouse IgG-FITC (Immunotech, Hamburg, Germany) for 30 minutes at 4° C. FII23 IgGl antibody was used as an isotype matched non-binding antibody to control unspecific binding.
Total RNA was prepared using the Qiagen total RNA kit (Qiagen, Hilden, Germany). RNA was converted to cDNA by reverse transcription and amplified for 38 cycles by PCR in a thermocycler (Stratagene, Heidelberg, Germany) using the Gene Amplification RNA-PCR kit (Perkin Elmer, Branchburg, N.J.) following the manufacturer's instructions. A 500-base pair fragment of CD95-L was amplified using primer 5′[…]3′ (SEQ ID:No 1) and 5′[…]3′ (SEQ ID NO:2) and a 311-base pair fragment of CD95 was amplified using primer 5′[…] […]
CD95-L mRNA expression was determined by RT-PCR. […] CD95-L protein was detected as a Mr 37,000 band by mouse anti-CD9S-L moab and enhanced chemiluminescence.
SHEP cells transfected with Bcl-2 or Bcl-XL or a neomycin resistance vector only (Neo) were treated (Lanes+) with 0.5 μg/ml Doxo or 10 μg/ml Bet A for 24 h. CD95 mRNA expression was determined by RT-PCR. […] For FACS analysis of CD95 protein expression (C), cells were stained with mouse anti-APO-1 moab followed Dy FITC-conjugated antimouse IgG antibody and analyzed by flow cytometry. […]

Regarding `CO[C@H](C/C=C\C=C\CC/C=C/C[C@H](C)/C=C/C(=C\C(=O)O)CC(=O)O)/C(C)=C\C=C(/C)C(=O)O` [bongkrekic acid], in test [1], the “effect of inhibitor on betulinic acid-driven release of cytochrome c” value is “blocked”.

Consider `COc1cccc2c1C(=O)c1c(O)c3c(c(O)c1C2=O)C[C@@](O)(C(=O)CO)C[C@@H]3O[C@H]1C[C@H](N)[C@H](O)[C@H](C)O1` [doxorubicin], for which the “CD95-L mRNA induction” value in test [2] was “strongly up-regulated CD95-L mRNA”. Besides, the “induction of CD95-L and CD95” value in test [3] was “Both CD95-L and CD95 were induced at the mRNA and protein level”.
